In article PMC5077204, “Accumulation of Peptidoglycan O-Acetylation Leads to Altered Cell Wall Biochemistry and Negatively Impacts Pathogenesis Factors of Campylobacter jejuni” (The Journal of Biological Chemistry, 2016):

Target: T1, Ape1-His6 (Campylobacter jejuni, UniProt A0A0H3PJ52)
T1 construct: gene CJJ81176_0638; predicted 21-residue signal peptide removed; C-terminal His6 tag (pET28a(+)), expressed in E. coli BL21(DE3)
Experiment: absorbance at […] nm, p-nitrophenol release
Format: biochemical
Conditions: 2 mM pNPAc; 50 mM sodium phosphate pH 6.5; room temperature

T1 sequence (A0A0H3PJ52 entry or part of it): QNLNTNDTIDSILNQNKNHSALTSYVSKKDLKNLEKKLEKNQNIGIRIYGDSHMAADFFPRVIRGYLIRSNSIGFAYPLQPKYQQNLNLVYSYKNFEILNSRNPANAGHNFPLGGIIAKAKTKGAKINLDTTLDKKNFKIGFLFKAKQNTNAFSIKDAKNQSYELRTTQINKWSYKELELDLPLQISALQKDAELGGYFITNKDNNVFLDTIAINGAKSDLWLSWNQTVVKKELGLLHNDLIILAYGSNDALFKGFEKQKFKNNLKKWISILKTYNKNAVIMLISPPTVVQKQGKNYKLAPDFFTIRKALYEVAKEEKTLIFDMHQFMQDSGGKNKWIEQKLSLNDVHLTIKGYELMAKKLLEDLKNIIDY

CC(=O)Oc1ccc([N+](=O)[O-])cc1 [p-nitrophenyl acetate]
absorbance at 405 nm, p-nitrophenol release: The specific activity of purified Ape1 was determined using p-nitrophenylacetate (pNPAc)
